Reference: patent publication US20230051589A1, “COMPOUNDS AND COMPOSITIONS FOR TREATING CONDITIONS ASSOCIATED WITH NLRP ACTIVITY” (Novartis AG, priority 2018, published 2023)

The molecules below were run on IL-1β production in hTHP-1 cells (assay: hTHP-1 assay containing 10% fetal bovine serum). Conditions: Homo sapiens, read-out: hTHP-1 IC50 in 10% FBS, hTHP-1 assay containing 10% fetal bovine serum, Table B4.
Format: cell-based, human
Procedure: inhibition=100-100×[HCave−Readout/(HCave−LCave)] • 2. Fit the normalized data in a dose-response manner using XLfit, and calculate the compound concentration. Tables B1, B2, and B3 show the biological activity of compounds in hTHP-1 assay containing 2% fetal bovine serum. […] Key: <0.008 μM=“++++++”; ≥0.008 and <0.04 μM=“+++++”; ≥0.04 and <0.2 μM=“++++”; ≥0.2 and <1 μM=“+++”; ≥1 and <5 μM=“++”; ≥5 and <30 μM=“+”.

IC50	SMILES
40 to 200 nM	CC(C)(O)c1csc(S(N)(=O)=NC(=O)Nc2c3c(cc4c2CCC4)CCC3)c1F (stereo not drawn) [Example 878, 3-Fluoro-N′-((1,2,3,5,6,7-hexahydro-s-indacen-4-yl)carbamoyl)-4-(2-hydroxypropan-2-yl)thiophene-2-sulfonimidamide]
40 to 200 nM	CC(C)(O)c1csc(S(N)(=O)=NC(=O)Nc2c3c(cc4c2CC4)CCC3)c1F (stereo not drawn) [Example 879, 3-Fluoro-4-(2-hydroxypropan-2-yl)-N′-((2,4,5,6-tetrahydro-1H-cyclobuta[f]inden-3-yl)carbamoyl)thiophene-2-sulfonimidamide]

Same assay, conditions: read-out: hTHP-1 IC50 in 10% FBS; hTHP-1 assay containing 10% fetal bovine serum, Table B4

SMILES	IC50
CC(C)(O)c1csc(S(N)(=O)=NC(=O)Nc2c3c(cc4c2CCC4)CCC3)c1F (single isomer, unassigned) [Example 880, (R) or (S)-3-fluoro-N′-((1,2,3,5,6,7-hexahydro-s-indacen-4-yl)carbamoyl)-4-(2-hydroxypropan-2-yl)thiophene-2-sulfonimidamide]	40 to 200 nM
CC(C)(O)c1csc(S(N)(=O)=NC(=O)Nc2c3c(cc4c2CCC4)CCC3)c1F (single isomer, unassigned) [Example 881, (S) or (R)-3-fluoro-N′-((1,2,3,5,6,7-hexahydro-s-indacen-4-yl)carbamoyl)-4-(2-hydroxypropan-2-yl)thiophene-2-sulfonimidamide]	5000 to 30000 nM

Next, values leading:

IC50	SMILES
8 to 40 nM	CC(C)(O)c1csc(S(N)(=O)=NC(=O)Nc2c3c(cc4c2CC4)CCC3)c1F (single isomer, unassigned) [Example 882, (R) or (S)-3-fluoro-4-(2-hydroxypropan-2-yl)-N′-((2,4,5,6-tetrahydro-1H-cyclobuta[f]inden-3-yl)carbamoyl)thiophene-2-sulfonimidamide]
1000 to 5000 nM	CC(C)(O)c1csc(S(N)(=O)=NC(=O)Nc2c3c(cc4c2CC4)CCC3)c1F (single isomer, unassigned) [Example 883, (S) or (R)-3-fluoro-4-(2-hydroxypropan-2-yl)-N′-((2,4,5,6-tetrahvdro-1H-cyclobuta[f]inden-3-yl)carbamoyl)thiophene-2-sulfonimidamide]
